Data: US11426371B2, “Compositions and methods for treating cancer” (University of Virginia Patent Foundation, priority 2017, dated 2022)
Like-named read-outs stand apart in the source and are kept apart here.

What was measured:
[1] = Solubility in vehicles for i.v. drug delivery; assay type: physicochemical
[2] = SACLAC serum/blood levels after i.p. or i.v. administration; assay type: in vivo, mouse
Method: FIG. 7 graphically depicts SACLAC levels in mouse blood following administration intraperitoneally (i.p.) at 40 mg/kg body weight or intravenously (i.v.) at 5 mg/kg body weight. The ordinate represents Concentration (nM) and the abscissa Time (hours). DMSO (dimethyl sulfoxide) and β-HPCD (2-hydroxypropyl […]) represent the vehicle for SACLAC delivery.
Serum concentrations of SACLAC were also determined following administration. (see FIG. 7). […] SACLAC was dissolved in dimethyl sulfoxide (DMSO) or 2-hydroxypropyl-β-cyclodextrin (β-HPCD). Serum levels were determined following injection of free SACLAC (i.p.—in DMSO at 40 mg/kg; or i.v.—5 mg/kg in β-HPCD). […] They also show our ability to generate and characterize in vitro functionality by modifying delivery and delivery systems, monitor PK and evolve our approaches based on experimental results in order to maximize in vivo efficacy.

[3] = system: normal samples (PBMCs and/or CD34+ cells); experiment: Viability of normal samples, MTS and Cell Titer Glo (FIG. 4, Table 2); assay type: cell-based; settings: PBMC
Method: AML cell lines and normal samples (PBMCs and/or CD34+ cells) were treated for 24 hours with SACLAC (FIG. 4A-7 cell lines) and similar AC inhibitor SABRAC (2-bromo-N-((2S,3R)-1,3-dihydroxyoctadecan-2-yl)acetamide) (FIG. 4B-four cell lines). Viability was assessed by MTS and Cell Titer Glo viability assays. EC50 values (FIG. 4C) were graphed to visualize fold-change between AML and normal cells with treatment of each compound. […] Cells tested for SABRAC were HL60/VCR and OCI-AML2 AML cell lines and two normal PBMC control samples (PBMC1 and PBMC2). The same four cell types were tested for SACLAC, as well as the AML cell line THP-1 and two normal CD34+ cell control samples (CD34+1 and CD34+2).
Next, we tested the toxicity of SACLAC and a similar published AC inhibitor SABRAC^17 to normal hematopoietic cells to ensure that AML cells are selectively targeted by the compound (FIG. 4A). […] This degree of selectivity was unexpected but extremely important for potential clinical use. […] This remarkable increase in selectivity is a surprising discovery that greatly exceeds the predicted similarity in compound behavior that one may expect with a simple substitution of one halogen for another (Cl for Br).

[4] = system: primary AML patient samples; experiment: Colony formation of primary AML patient cells; assay type: cell-based, human; settings: over several days
Method: Multiple primary patient (Pt) AML cells were treated with various doses of SACLAC and assayed for apoptosis at 48 hours and colony formation over several days. […] The ordinate represents Colonies (as % of control) and the abscissa represents the concentration of SACLAC (μM). Unt=untreated; DMSO=dimethyl sulfoxide vehicle control.
Further, effects on patient samples strongly support the potential for clinical relevance of SACLAC. […] Based on the data presented here, we propose that use of SACLAC for treatment of AML is novel and clinically promising.

[5] = system: MV4-11 hAML xenograft; experiment: Human AML cell line mouse xenograft model; assay type: in vivo; settings: 5 mg/kg i.v. daily M to F for 18 days in β-HPCD, MV4-11-engrafted NSG mice, p<0.05
[6] = system: HL60/VCR and OCI-AML2 AML cell lines; experiment: Apoptosis in AML cell lines by flow cytometry; assay type: cell-based, human; settings: 48 hours, dose-dependent
Method: Representative human AML cell lines (FIG. 2A; upper and lower panels) HL60/VCR and (FIG. 2B; upper and lower panels) OCI-AML2 were treated with SACLAC for 24 and 48 hours. Viability was assessed by MTS assay at 24 and 48 hours and apoptosis was assessed by flow cytometry at 48 hours. Upper panels represent % viability and lower panels indicate % apoptosis.
Two representative human-derived AML cell lines, HL60/VCR and OCI-AML2, are shown. These studies have been expanded to a large panel of additional human AML cell lines (n=30, Table 1).

[7] = biological target: T1, acid ceramidase (AC) (Homo sapiens, UniProt Q13510); experiment: LC/MS analysis of tryptic digests of AC incubated with SACLAC; assay type: binding; set-up: expressed in transfected cells; settings: peptide C,T,S,I,V,A,E,D,K
T1 sequence (Q13510 143-395 limits assumed): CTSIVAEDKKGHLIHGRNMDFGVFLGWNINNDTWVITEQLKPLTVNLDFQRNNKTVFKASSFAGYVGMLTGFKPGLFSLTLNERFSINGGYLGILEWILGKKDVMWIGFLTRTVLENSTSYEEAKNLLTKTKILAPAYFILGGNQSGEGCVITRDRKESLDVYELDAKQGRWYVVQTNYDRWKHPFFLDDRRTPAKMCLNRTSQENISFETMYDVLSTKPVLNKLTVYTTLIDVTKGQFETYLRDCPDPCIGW
T1 sequence (Q13510 22-142 limits assumed): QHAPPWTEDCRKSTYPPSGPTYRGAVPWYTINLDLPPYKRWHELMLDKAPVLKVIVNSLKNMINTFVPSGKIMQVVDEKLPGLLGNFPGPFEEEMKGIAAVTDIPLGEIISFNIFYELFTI

Compound: CCCCCCCCCCCCCCC[C@@H](O)[C@H](CO)NC(=O)CCl [SACLAC, 2-chloro-N-((2S,3R)-1,3-dihydroxyoctadecan-2-yl)acetamide]
- solubility in vehicles for i.v. drug delivery [1]: low solubility
- uptake following i.p. injection ([2]; i.p. injection): suboptimal uptake
- serum levels ([2]; i.p., 40 mg/kg in DMSO): low serum levels
- serum levels ([2]; i.v., 5 mg/kg in β-HPCD, compared with i.p.): great improvement
- EC50 ([3]; 24 h, mean of normal samples (PBMCs and/or CD34+ cells), 24 hours, read-out: EC50 Normal): 13.5 µM
- EC50 ([3]; 24 h, normal controls at 24 h, mean ± spread, read-out: EC50, normal controls): 13.5 ± 7.1 µM
- EC50 ([3]; n=10, read-out: mean EC50, normal PMBC and CD34+ controls): 6 µM
- colony formation [4]: substantially reduced colony formation
- leukemic burden (human CD45+ cells, YFP expression, percent double positive cells) [5]: reduced leukemic burden
- apoptosis [6]: induced apoptosis
- covalent modification of AC peptide [7]: formation of the expected lipid modified peptide
